ChEMBL document CHEMBL1126039, “Synthesis and antiviral activity of 1-cyclobutyl-5-(2-bromovinyl)uracil nucleoside analogues and related compounds” (J Med Chem, 1992)

Tested on: WI-38
Test: Anti viral activity against HCMV(AD169) in WI-38 cell monolayers
Assay type: functional
Conditions: Homo sapiens, read-out: ID50 (the source's name)

Row | SMILES | IC50
1 | O=c1[nH]c(=O)n([C@@H]2C[C@H](CO)C2CO)cc1/C=C/Cl (stereo partly specified) | 350000 nM
2 | O=c1[nH]c(=O)n(C2CC(CO)C2CO)cc1/C=C/Br (racemic) | > 300000 nM
3 | O=c1[nH]c(=O)n([C@@H]2O[C@H](CO)[C@@H](O)[C@@H]2O)cc1/C=C/Br [SORIVUDINE] | > 290000 nM
4 | O=c1[nH]c(=O)n([C@@H]2C[C@H](CO)C2CO)cc1/C=C/I (stereo partly specified) | 260000 nM
5 | Nc1nc2c(ncn2COCCO)c(=O)[nH]1 [ACYCLOVIR] | 40000 nM
6 | O=c1[nH]c(=O)n([C@@H]2C[C@H](CO)C2CO)cc1/C=C/Br (stereo partly specified) | > 300000 nM

Molecular target: T1, Thymidine kinase, cytosolic (Homo sapiens) (UniProt P04183)
T1 sequence (whole entry): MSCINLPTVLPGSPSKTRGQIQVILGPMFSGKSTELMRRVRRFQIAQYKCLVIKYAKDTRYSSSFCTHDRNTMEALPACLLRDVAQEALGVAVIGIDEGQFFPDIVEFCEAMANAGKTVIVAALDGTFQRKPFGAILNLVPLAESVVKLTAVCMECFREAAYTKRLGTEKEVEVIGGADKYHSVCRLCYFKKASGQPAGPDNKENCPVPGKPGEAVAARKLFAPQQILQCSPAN
Conditions: Human alphaherpesvirus 3

Row | SMILES | Kinase activity (pM min-1*ml-1)
7 | O=c1[nH]c(=O)n([C@@H]2O[C@H](CO)[C@@H](O)[C@@H]2O)cc1/C=C/Br [SORIVUDINE] | 95
8 | Cc1cn([C@H]2C[C@H](O)[C@@H](CO)O2)c(=O)[nH]c1=O | 174

Tested on: WI-38
Test: Anti viral activity against VZV(Ellen strain) in WI-38 cell monolayers.
Assay type: functional
Conditions: Homo sapiens, read-out: ID50 (the source's name)

Row | SMILES | IC50
9 | O=c1[nH]c(=O)n([C@@H]2C[C@H](CO)C2CO)cc1I (stereo partly specified) | 28000 nM
10 | O=c1[nH]c(=O)n([C@@H]2C[C@H](CO)C2CO)cc1/C=C/Cl (stereo partly specified) | 400 nM
11 | O=c1[nH]c(=O)n(C2CC(CO)C2CO)cc1/C=C/Br (racemic) | 150 nM
12 | O=c1[nH]c(=O)n([C@@H]2O[C@H](CO)[C@@H](O)[C@@H]2O)cc1/C=C/Br [SORIVUDINE] | 3 nM
13 | O=c1[nH]c(=O)n([C@@H]2C[C@H](CO)C2CO)cc1/C=C/I (stereo partly specified) | 50 nM
14 | O=c1[nH]c(=O)n([C@@H]2C[C@H](CO)C2CO)cc1/C=C/Br (stereo partly specified) | 200 nM

Tested on: WI-38
Test: Anti viral activity against HSV-1(Schooler) in WI-38 cell monolayers
Assay type: functional
Conditions: Homo sapiens, read-out: ID50 (the source's name)

Row | SMILES | IC50
15 | O=c1[nH]c(=O)n([C@@H]2C[C@H](CO)C2CO)cc1/C=C/Cl (stereo partly specified) | 3500 nM
16 | O=c1[nH]c(=O)n(C2CC(CO)C2CO)cc1/C=C/Br (racemic) | > 6000 nM
17 | O=c1[nH]c(=O)n([C@@H]2O[C@H](CO)[C@@H](O)[C@@H]2O)cc1/C=C/Br [SORIVUDINE] | 140 nM
18 | O=c1[nH]c(=O)n([C@@H]2C[C@H](CO)C2CO)cc1/C=C/I (stereo partly specified) | 13000 nM
19 | Nc1nc2c(ncn2COCCO)c(=O)[nH]1 [ACYCLOVIR] | 200 nM
20 | O=c1[nH]c(=O)n([C@@H]2C[C@H](CO)C2CO)cc1/C=C/Br (stereo partly specified) | 3000 nM

Tested on: WI-38
Test: Anti viral activity against VZV(pplla strain) in WI-38 cell monolayers.
Assay type: functional
Conditions: Homo sapiens, read-out: ID50 (the source's name)

Row | SMILES | IC50
21 | O=c1[nH]c(=O)n(C2CC(CO)C2CO)cc1/C=C/Br (racemic) | 200 nM
22 | O=c1[nH]c(=O)n([C@@H]2O[C@H](CO)[C@@H](O)[C@@H]2O)cc1/C=C/Br [SORIVUDINE] | 3 nM
23 | O=c1[nH]c(=O)n([C@@H]2C[C@H](CO)C2CO)cc1/C=C/I (stereo partly specified) | 260 nM
24 | O=c1[nH]c(=O)n([C@@H]2C[C@H](CO)C2CO)cc1/C=C/Br (stereo partly specified) | 200 nM

Tested on: WI-38
Test: Anti viral activity against VZV(9021 strain) in WI-38 cell monolayers.
Assay type: functional
Conditions: Homo sapiens, read-out: ID50 (the source's name)

Row | SMILES | IC50
25 | O=c1[nH]c(=O)n([C@@H]2C[C@H](CO)C2CO)cc1/C=C/Cl (stereo partly specified) | 1100 nM
26 | O=c1[nH]c(=O)n(C2CC(CO)C2CO)cc1/C=C/Br (racemic) | 600 nM
27 | O=c1[nH]c(=O)n([C@@H]2O[C@H](CO)[C@@H](O)[C@@H]2O)cc1/C=C/Br [SORIVUDINE] | 3 nM
28 | O=c1[nH]c(=O)n([C@@H]2C[C@H](CO)C2CO)cc1/C=C/I (stereo partly specified) | 130 nM
29 | O=c1[nH]c(=O)n([C@@H]2C[C@H](CO)C2CO)cc1/C=C/Br (stereo partly specified) | 150 nM

Tested on: WI-38
Test: Anti viral activity against VZV(Oka strain) in WI-38 cell monolayers.
Assay type: functional
Conditions: Homo sapiens, read-out: ID50 (the source's name)

Row | SMILES | IC50
30 | O=c1[nH]c(=O)n(C2CC(CO)C2CO)cc1/C=C/Br (racemic) | 600 nM
31 | O=c1[nH]c(=O)n([C@@H]2O[C@H](CO)[C@@H](O)[C@@H]2O)cc1/C=C/Br [SORIVUDINE] | 3 nM

Tested on: not listed separately
Test: Therapeutic index of compound maesured as ratio of ID50 for WI-38 cell growth inhibition / ID50 anti-VZV (strain Ellen)
Assay type: cell-based
Conditions: human, WI-38 cells; read-out: Therapeutic index

Row | SMILES | selectivity ratio
32 | O=c1[nH]c(=O)n([C@@H]2C[C@H](CO)C2CO)cc1/C=C/Cl (stereo partly specified) | > 2
33 | O=c1[nH]c(=O)n(C2CC(CO)C2CO)cc1/C=C/Br (racemic) | > 2.5
34 | O=c1[nH]c(=O)n([C@@H]2O[C@H](CO)[C@@H](O)[C@@H]2O)cc1/C=C/Br [SORIVUDINE] | > 7.5
35 | O=c1[nH]c(=O)n([C@@H]2C[C@H](CO)C2CO)cc1/C=C/I (stereo partly specified) | > 2.7
36 | O=c1[nH]c(=O)n([C@@H]2C[C@H](CO)C2CO)cc1/C=C/Br (stereo partly specified) | > 1.3

Tested on: WI-38
Test: Growth inhibitory activity against WI-38 cells
Assay type: functional
Conditions: Homo sapiens, read-out: ID50 (the source's name)

Row | SMILES | IC50
37 | O=c1[nH]c(=O)n([C@@H]2C[C@H](CO)C2CO)cc1/C=C/Cl (stereo partly specified) | > 400000 nM
38 | O=c1[nH]c(=O)n(C2CC(CO)C2CO)cc1/C=C/Br (racemic) | > 750000 nM
39 | O=c1[nH]c(=O)n([C@@H]2O[C@H](CO)[C@@H](O)[C@@H]2O)cc1/C=C/Br [SORIVUDINE] | > 75000 nM
40 | O=c1[nH]c(=O)n([C@@H]2C[C@H](CO)C2CO)cc1/C=C/I (stereo partly specified) | > 800000 nM
41 | Nc1nc2c(ncn2COCCO)c(=O)[nH]1 [ACYCLOVIR] | > 750000 nM
42 | O=c1[nH]c(=O)n([C@@H]2C[C@H](CO)C2CO)cc1/C=C/Br (stereo partly specified) | > 750000 nM

Tested on: WI-38
Test: Anti viral activity against VZV(Ito strain) in WI-38 cell monolayers.
Assay type: functional
Conditions: Homo sapiens, read-out: ID50 (the source's name)

Row | SMILES | IC50
43 | O=c1[nH]c(=O)n([C@@H]2C[C@H](CO)C2CO)cc1/C=C/Cl (stereo partly specified) | 50 nM
44 | O=c1[nH]c(=O)n(C2CC(CO)C2CO)cc1/C=C/Br (racemic) | 150 nM
45 | O=c1[nH]c(=O)n([C@@H]2O[C@H](CO)[C@@H](O)[C@@H]2O)cc1/C=C/Br [SORIVUDINE] | 7 nM
46 | O=c1[nH]c(=O)n([C@@H]2C[C@H](CO)C2CO)cc1/C=C/I (stereo partly specified) | 100 nM
47 | O=c1[nH]c(=O)n([C@@H]2C[C@H](CO)C2CO)cc1/C=C/Br (stereo partly specified) | 15 nM

Molecular target: T1, Thymidine kinase, cytosolic (Homo sapiens)
Conditions: Human alphaherpesvirus 3
Remark: another data set of the same source

Row | SMILES | Kinase activity (pM min-1*ml-1)
48 | O=c1[nH]c(=O)n([C@@H]2C[C@H](CO)C2CO)cc1/C=C/Cl (stereo partly specified) | 333
49 | O=c1[nH]c(=O)n(C2CC(CO)C2CO)cc1/C=C/Br (racemic) | 1280
50 | O=c1[nH]c(=O)n([C@@H]2O[C@H](CO)[C@@H](O)[C@@H]2O)cc1/C=C/Br [SORIVUDINE] | 140
51 | Cc1cn([C@H]2C[C@H](O)[C@@H](CO)O2)c(=O)[nH]c1=O | 585
52 | O=c1[nH]c(=O)n([C@@H]2C[C@H](CO)C2CO)cc1/C=C/I (stereo partly specified) | 736
53 | Nc1nc2c(ncn2COCCO)c(=O)[nH]1 [ACYCLOVIR] | 13
54 | O=c1[nH]c(=O)n([C@@H]2C[C@H](CO)C2CO)cc1/C=C/Br (stereo partly specified) | 63

Tested on: WI-38
Test: Anti viral activity against HSV-1 in WI-38 cell monolayers.
Assay type: functional
Conditions: Homo sapiens, read-out: ID50 (the source's name)

Row | SMILES | IC50
55 | O=c1[nH]c(=O)n([C@@H]2C[C@H](CO)C2CO)cc1I (stereo partly specified) | 14000 nM
56 | O=c1[nH]c(=O)n([C@@H]2C[C@H](CO)C2O)cc1I (stereo partly specified) | > 300000 nM

Tested on: WI-38
Test: Anti viral activity against HCMV in WI-38 cell monolayers.
Assay type: functional
Conditions: Homo sapiens, read-out: ID50 (the source's name)

Row | SMILES | IC50
57 | O=c1[nH]c(=O)n([C@@H]2C[C@H](CO)C2O)cc1I (stereo partly specified) | > 300000 nM

Tested on: WI-38
Test: Anti viral activity against VZV (Kanno-Kohmura(TK-) strain) in WI-38 cell monolayers.
Assay type: functional
Conditions: Homo sapiens, read-out: ID50 (the source's name)

Row | SMILES | IC50
58 | O=c1[nH]c(=O)n([C@@H]2C[C@H](CO)C2CO)cc1/C=C/Cl (stereo partly specified) | > 220000 nM
59 | O=c1[nH]c(=O)n(C2CC(CO)C2CO)cc1/C=C/Br (racemic) | > 300000 nM
60 | O=c1[nH]c(=O)n([C@@H]2O[C@H](CO)[C@@H](O)[C@@H]2O)cc1/C=C/Br [SORIVUDINE] | > 72000 nM
61 | O=c1[nH]c(=O)n([C@@H]2C[C@H](CO)C2CO)cc1/C=C/I (stereo partly specified) | > 260000 nM
62 | O=c1[nH]c(=O)n([C@@H]2C[C@H](CO)C2CO)cc1/C=C/Br (stereo partly specified) | 150000 nM

Tested on: WI-38
Test: Anti viral activity against HSV-2 in WI-38 cell monolayers.
Assay type: functional
Conditions: Homo sapiens, read-out: ID50 (the source's name)

Row | SMILES | IC50
63 | O=c1[nH]c(=O)n([C@@H]2C[C@H](CO)C2O)cc1I (stereo partly specified) | > 300000 nM

Tested on: WI-38
Test: Anti viral activity against HSV-2(186) in WI-38 cell monolayers
Assay type: functional
Conditions: Homo sapiens, read-out: ID50 (the source's name)

Row | SMILES | IC50
64 | O=c1[nH]c(=O)n([C@@H]2C[C@H](CO)C2CO)cc1/C=C/Cl (stereo partly specified) | > 280000 nM
65 | O=c1[nH]c(=O)n(C2CC(CO)C2CO)cc1/C=C/Br (racemic) | > 300000 nM
66 | O=c1[nH]c(=O)n([C@@H]2O[C@H](CO)[C@@H](O)[C@@H]2O)cc1/C=C/Br [SORIVUDINE] | 120000 nM
67 | O=c1[nH]c(=O)n([C@@H]2C[C@H](CO)C2CO)cc1/C=C/I (stereo partly specified) | > 260000 nM
68 | Nc1nc2c(ncn2COCCO)c(=O)[nH]1 [ACYCLOVIR] | 800 nM
69 | O=c1[nH]c(=O)n([C@@H]2C[C@H](CO)C2CO)cc1/C=C/Br (stereo partly specified) | > 300000 nM

Tested on: WI-38
Test: Anti viral activity against VZV(40a2 (TK-) strain) in WI-38 cell monolayers.
Assay type: functional
Conditions: Homo sapiens, read-out: ID50 (the source's name)

Row | SMILES | IC50
70 | O=c1[nH]c(=O)n(C2CC(CO)C2CO)cc1/C=C/Br (racemic) | > 300000 nM

Tested on: WI-38
Test: Anti viral activity against VZV in WI-38 cell monolayers.
Assay type: functional
Conditions: Homo sapiens, read-out: ID50 (the source's name)

Row | SMILES | IC50
71 | O=c1[nH]c(=O)n([C@@H]2C[C@H](CO)C2O)cc1I (stereo partly specified) | > 300000 nM
